Results on five compounds are retold here after patent publication US20260258113A1, “BETA GLOBIN MIMETIC PEPTIDES AND THEIR USE” (THE UNITED STATES OF AMERICA, AS REPRESENTED BY THE …, priority 2022, published 2026).

Where “and” joins values, the source holds several entries; their conditions need not be identical. Identical values can stand only once. Entries after “also recorded” stand apart in the source; their conditions may differ.

The subject of assay [1] is human omental arteries. As to the kind of experiment: Isolated artery pressure myography: vasoconstriction to phenylephrine after alpha globin mimetic or control peptide, then L-NAME. The format is cell-based. On the set-up: key to Top (Mean) / Bottom (Mean): fitted inner diameter, % of baseline. The conditions noted are these: for Bottom (Mean) / Top (Mean): four parameter logistic fit of inner diameter (percentage of baseline) vs phenylephrine; for maximal constriction to phenylephrine (4-PL minimum): pairs of omental arteries from five donors; for effect on vasoconstriction response to PE: omental arteries incubated with peptide, 5 μmol/L. Here is the method:
To test this hypothesis, ex vivo pressure myography was performed on pairs of omental arteries obtained from each of five donors in response to escalating doses of the alpha adrenoreceptor agonist phenylephrine (responses fit with four parameter logistic regression best-fit values, FIGS. 6A-6B).
Isolated artery pressure myography: The pressure myography methodology utilized here for omental arteries is consistent with published protocols for assessing reactivity of mesenteric articles using a DMT pressure myograph (Shahid and Buys, JoVE J Vis Exp. 7.76:50328, 2013). Arteries […] in diameter were dissected from omental tissue on ice and transferred to the culture myograph wells (DMT-USA CM204); arterial inner diameter was measured by video microscope (DMT-USA) with digital calipers (MyoVIEW, DMT-USA).
All arteries used developed at least 20% myogenic tone after pressurization, consistent with standards for pressure myography (Shahid and Buys, JoVE J Vis Exp. 7.76:50328, 2013; Butcher et al., JoVE J Vis Exp. 28.62:3674, 2012; Jadeja et al., JoVE J Vis Exp. 6.101:e50997, 2015). Arteries were assessed for vasoconstriction response to the alpha-1-adrenoreceptor agonist phenylephrine (PE) [10^−9-10^−3] M (Sigma-Aldrich). Dose response to PE was then assessed after incubation with either the alpha globin mimetic peptide HbαX or a control peptide (5 μmol/L in KH buffer), and again following incubation with the NOS inhibitor No-Nitro-L-arginine methyl ester HCl (L-NAME, 10^−4 M)(Sigma-Aldrich).

In assay [2] the test system is canine resistance arteries. As to the kind of experiment: Pressure myography of canine arteries: phenylephrine dose escalation after Hbb-1. In kind it is cell-based. Here is the method: For these studies, omental tissue was removed from a canine laboratory animals soon after euthanasia. Mesenteric arteries 100-300 um in diameter were dissected out of the tissue and cannulated on glass pipettes. The arteries were incubated in a physiologic buffer solution (Krebs-Henseleit) at 37 degrees Celsius and pressured to 60 mm Hg. To assess vasoreactivity, escalating doses of phenylephrine were added to the incubation bath and artery diameter was measured using video microscopy with edge detection and digital calipers. The artery was incubated with 5 uM Hbb-1 peptide (including the tat cell permeability sequence) for 45 minutes. A second phenylephrine dose escalation was applied, and vasoconstriction was measured. The entire experiment was repeated with a second animal donor. In FIG. 20, artery diameter is presented as a percentage of baseline resting diameter at 60 mm Hg of pressure. The means and standard error of the mean were plotted for each condition and phenylephrine dose.

In assay [3] the test system is isolated human omental arteries. The assay is described as follows: Isolated artery pressure myography: vasoconstriction to phenylephrine after beta globin mimetic peptides. The format is cell-based. The note with it: peptide 5 μmol/L for 45 minutes at 37° C., ex vivo. Here is the method:
Collection of omental arteries: Human omental tissue was collected from patients during clinically indicated abdominal operations at the NIH Clinical Center. All patients provided informed consent for tissue procurement on IRB-approved protocol 13-C-0176 (NCT01915225). Tissue removed by the surgeon was immediately submerged in cold 4° C. Krebs-HEPES (KH) buffer (pH 7.4) and kept on ice during dissection and artery isolation. Small arteries were dissected away from the tissue in cold Krebs-HEPES (KH) buffer (Boston BioProducts).
Identification of beta globin mimetic peptides: Tetrameric hemoglobin was docked with dimer eNOS oxygenase domain using molecular docking algorithms (HADDOCK2). […]
Isolated artery pressure myography: The pressure myography methodology utilized here for omental arteries is consistent with published protocols for assessing reactivity of mesenteric articles using a DMT pressure myograph. […] Digital video calipers were used to measure in the inner diameter of cannulated arteries (MyoVIEW, DMT-USA) at two positions, and the average of both measurements was recorded.
All arteries developed at least 20% myogenic tone after pressurization, consistent with standards for pressure myography. Arteries were assessed for vasoconstriction response to the alpha-1-adrenoreceptor agonist phenylephrine (PE, Sigma-Aldrich) at successively higher doses ranging from 10^−9 to 10^−3 molar. […]

For assay [4], the target named is T1, association of alpha globin with eNOS (Mus musculus, UniProt P70313).
T1 construct: host or cells: mice (in vivo), endogenous proteins of resistance arteries
T1 sequence (P70313 2-1202 limits assumed): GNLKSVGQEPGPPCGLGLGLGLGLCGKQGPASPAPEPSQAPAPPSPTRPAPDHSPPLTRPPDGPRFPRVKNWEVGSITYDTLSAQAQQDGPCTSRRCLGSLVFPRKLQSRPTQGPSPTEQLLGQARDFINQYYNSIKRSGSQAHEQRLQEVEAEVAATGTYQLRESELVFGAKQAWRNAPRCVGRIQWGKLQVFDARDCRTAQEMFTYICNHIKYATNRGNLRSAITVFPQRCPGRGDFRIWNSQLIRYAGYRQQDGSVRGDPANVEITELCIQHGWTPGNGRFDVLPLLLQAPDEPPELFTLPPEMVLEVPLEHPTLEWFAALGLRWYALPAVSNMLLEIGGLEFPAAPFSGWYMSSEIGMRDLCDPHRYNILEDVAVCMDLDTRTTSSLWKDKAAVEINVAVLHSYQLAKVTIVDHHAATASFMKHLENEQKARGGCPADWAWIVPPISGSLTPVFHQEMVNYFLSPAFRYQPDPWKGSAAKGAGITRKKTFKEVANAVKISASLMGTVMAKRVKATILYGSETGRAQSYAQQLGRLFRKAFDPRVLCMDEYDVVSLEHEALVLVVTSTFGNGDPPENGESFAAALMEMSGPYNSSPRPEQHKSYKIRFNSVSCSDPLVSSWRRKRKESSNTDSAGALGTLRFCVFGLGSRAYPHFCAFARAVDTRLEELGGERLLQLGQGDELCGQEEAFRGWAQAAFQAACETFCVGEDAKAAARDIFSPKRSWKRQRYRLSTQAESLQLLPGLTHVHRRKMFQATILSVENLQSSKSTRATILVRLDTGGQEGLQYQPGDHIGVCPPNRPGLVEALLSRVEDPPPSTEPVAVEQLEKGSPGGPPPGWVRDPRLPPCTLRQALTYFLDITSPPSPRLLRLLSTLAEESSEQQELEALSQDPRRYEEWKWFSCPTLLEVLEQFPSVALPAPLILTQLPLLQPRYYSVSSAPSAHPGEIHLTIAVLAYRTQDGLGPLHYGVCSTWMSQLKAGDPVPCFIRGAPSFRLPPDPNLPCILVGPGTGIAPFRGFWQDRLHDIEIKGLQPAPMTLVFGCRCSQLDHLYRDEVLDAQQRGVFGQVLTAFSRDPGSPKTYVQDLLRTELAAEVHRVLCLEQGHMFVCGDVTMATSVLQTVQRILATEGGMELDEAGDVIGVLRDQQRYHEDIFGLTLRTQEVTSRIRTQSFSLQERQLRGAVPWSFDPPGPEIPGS
The note with it: mice; cited from earlier work.

The mark [5] stands for this setting: n = 5 human donors, peptide 5 μmol/L, L-NAME 10^-4 M.
Setting [6] is: log of phenylephrine concentration, four parameter logistic fit, n = 5 human donors, peptide 5 μmol/L, L-NAME 10^-4 M.
[7] abbreviates: four parameter logistic fit, n = 5 human donors, peptide 5 μmol/L, L-NAME 10^-4 M.

The term IC50 denotes the concentration that inhibits the measured activity by half.

As to `COC(=O)[C@@H](N)CCCN=C(N)N[N+](=O)[O-].Cl` [L-NAME, No-Nitro-L-arginine methyl ester HCl], the results for the “effect of L-NAME on vasoconstriction to PE” value in assay [1] (control peptide-treated arteries) and in assay [1] (mimetic peptide-treated arteries) were “no effect” and “vasoconstriction was restored”, respectively. In assay [1] (mimetic peptide-treated arteries, L-NAME 10^-4 M), the “phenylephrine-induced vasoconstriction after incubation with L-NAME” value is reported as 41.9±2.0 % of baseline.
For `CNC[C@H](O)c1cccc(O)c1` [Phenylephrine (PE), phenylephrine], in assay [1] (Homo sapiens, log of phenylephrine concentration, four parameter logistic fit, n = 5 human donors, peptide 5 μmol/L, L-NAME 10^-4 M), the IC50 is 1000 nM. For the same compound, in assay [1] (setting [5]), the “Bottom (Mean)” value is 46.11 and 39.08; the “Top (Mean)” value was 100.30 and 100.12. For the same compound, the “LogIC50 (Mean)” value in assay [1] (setting [6]) was −5.891. Moreover, the “maximal constriction to phenylephrine (4-PL minimum)” value (“maximal constriction” below) in assay [1] (peptide 5 μmol/L) was 39.1±3.2 % of baseline diameter and 46.1±5.5 % of baseline diameter.
Regarding TPEEKSAVTALWGK [Hbb-1], in assay [2] (5 uM Hbb-1 peptide (including tat sequence) for 45 minutes, two animal donors), the “increase of phenylephrine dose needed to achieve the same degree of vasoconstriction” value is given as “approximately 100 times”. For the same compound, in assay [2] (5 uM Hbb-1 peptide for 45 minutes), the “effect on phenylephrine-induced vasoconstriction in canine arteries” value is “can inhibit vasoconstriction; also recorded: shifted the vasoconstrictive response to phenylephrine to the right; also recorded: inhibits phenylephrine-induced vasoconstriction”. The “effect on human arterial vasoconstriction responses to phenylephrine” value in assay [3] is recorded as “can inhibit vasoconstriction”; in assay [3] (listed as Hbb-Peptide-1), “potent vasodilatory effects”.
For YGRKKRRQRRRFPYFSTKLTT [control peptide], in assay [1] (setting [5]), the “Bottom (Mean)” value is 45.78 and the “Top (Mean)” value stood at 100.40. For the same compound, in assay [1] (setting [7]), the “HillSlope (Mean)” value is given as −0.623. The “LogIC50 (Mean)” value in assay [1] (setting [6]) is listed as −6.020. Moreover, in assay [1], the “effect on vasoconstriction response to PE” value is recorded as “no significant difference”. The “maximal constriction” value in assay [1] (peptide 5 μmol/L) was 39.1±3.2 % of baseline diameter.
Regarding YGRKKRRQRRRLSFPTTKTYF [HbαX], in assay [1] (setting [5]), the “Bottom (Mean)” value came out at 64.59 and the “Top (Mean)” value was found to be 99.93. Also, the “HillSlope (Mean)” value in assay [1] (setting [7]) was −0.549. For the same compound, the “disruption of NO-scavenging in human vessels” value in assay [1] (human vessels) is recorded as “potent disruptor of NO-scavenging”. In addition, the “LogIC50 (Mean)” value in assay [1] (setting [6]) was −5.575. Moreover, in assay [1] (listed as alpha globin mimetic peptide), the “effect on vasoconstriction response to PE” value is on record as “significantly inhibited the vasoconstriction response to PE; also recorded: diminished this constriction”. The “maximal constriction” value in assay [1] (peptide 5 μmol/L) is recorded as 64.6±1.6 % of baseline diameter. In assay [4], the alpha-1-adrenergic vasoconstriction entry is listed as “reduced alpha-1-adrenergic vasoconstriction”, the angiotensin-2 induced hypertension result is reported as “protection against angiotensin- 2 induced hypertension”, the “association of alpha globin with eNOS in vivo” value is “disrupt the association of alpha globin with eNOS” and the “mean arterial blood pressure” value is given as “lower mean arterial blood pressure”.
